Test systems include HL-60; OVCAR-3; SW-620; OVCAR-4; SK-MEL-28; MDA-MB-435; NCI-H226; NCI-H23; UACC-62; PC-3; SNB-75; UACC-257; HOP-92; SK-OV-3; SR; Malme-3M; DU-145; OVCAR-8; SF-539; RXF 393.
Experiment in all cases: inhibition of tumour cell growth, NCI panel, 48 h

The record followed here is ChEMBL document CHEMBL1201862, “PubChem BioAssay data set” (2004).

Structures are written as SMILES.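 Following 48 hours of exposure in 96-well plates, responses at five concentrations were used to interpolate endpoints linearly. GI50: concentration for 50% inhibition of growth.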 Activity calls are given as the source filed them. Rule as the data show it: active = GI50 up to about 1.1 µM and inactive = higher. Some results are limits rather than exact numbers.

For `N#CCSc1c(-c2ccccc2)c(=O)n(-c2ccccc2)c(=S)n1-c1ccccc1`, the GI50 in the assay on HL-60 is > 100 µM (inactive); in the assay on OVCAR-3 it was > 100 µM (inactive); in the assay with SW-620 it was > 100 µM (inactive); with OVCAR-4 it was > 100 µM (inactive); in the assay on SK-MEL-28, > 100 µM (inactive); in the assay on MDA-MB-435, 90.6 µM (inactive). Besides, the GI50 in the assay with NCI-H226 was > 100 µM (inactive); in the assay with NCI-H23 it was > 100 µM (inactive); with UACC-62, 32.9 µM (inactive); in the assay on PC-3 it was > 100 µM (inactive); in the assay with SNB-75, 20.1 µM (inactive); in the assay with UACC-257 it was > 100 µM (inactive). Also, the GI50 in the assay with HOP-92 is 4.99 µM (inactive); with SK-OV-3 it was > 100 µM (inactive); in the assay with SR, > 100 µM (inactive); in the assay with Malme-3M, > 100 µM (inactive); with DU-145, > 10 µM (inactive); in the assay with OVCAR-8, > 100 µM (inactive).
Take `c1ccc2c(c1)CC1COc3ccccc3C1O2` (stereo not drawn): the GI50 in the assay on HL-60 was > 100 µM (inactive); with OVCAR-3 it was 67.8 µM (inactive); in the assay with SW-620 it was 46.8 µM (inactive); in the assay with MDA-MB-435, 47.4 µM (inactive); in the assay with NCI-H226 it was > 100 µM (inactive); in the assay with NCI-H23, 67.1 µM (inactive). Moreover, the GI50 in the assay on UACC-62 was > 100 µM (inactive); in the assay with PC-3 it was 70.6 µM (inactive); with SNB-75, > 100 µM (inactive); in the assay on UACC-257 it was 38.8 µM (inactive); with HOP-92, 47 µM (inactive); in the assay with SK-OV-3, > 100 µM (inactive). The GI50 in the assay with SR is 88.1 µM (inactive); with Malme-3M it was > 100 µM (inactive); with SF-539, > 100 µM (inactive); with DU-145 it was > 100 µM (inactive); with OVCAR-8, > 100 µM (inactive).
Consider `COC(=O)[C@]1(C)CCCC2(C)C3=C(CCC21)CC1(CC3)SCCS1` (stereo partly drawn), for which the GI50 in the assay on HL-60, in the assay on OVCAR-3, with SW-620, in the assay on OVCAR-4, with SK-MEL-28 and with MDA-MB-435 was > 10 µM (inactive) in each case. Moreover, the GI50 in the assay with NCI-H23, in the assay on UACC-62, with PC-3, with SNB-75, in the assay on UACC-257 and in the assay on HOP-92 was > 10 µM (inactive) throughout. For the same molecule, the GI50 in the assay with SK-OV-3, in the assay on SR, in the assay with Malme-3M, in the assay with SF-539, in the assay on DU-145 and in the assay on OVCAR-8 was > 10 µM (inactive) each time.
Turning to `COC(=O)C1CCC(=O)N1C(c1ccc(OC)cc1)c1ccc(OC)cc1` (stereo not drawn), the GI50 in the assay with HL-60, in the assay on OVCAR-3, in the assay with SW-620, in the assay with OVCAR-4, with SK-MEL-28 and with MDA-MB-435 was > 100 µM (inactive) throughout. The GI50 with NCI-H226, in the assay on NCI-H23, with UACC-62, in the assay on PC-3, in the assay with SNB-75 and in the assay with UACC-257 was > 100 µM (inactive) throughout. Moreover, the GI50 with HOP-92, in the assay on SK-OV-3, in the assay on SR, in the assay with Malme-3M, in the assay on SF-539 and in the assay with DU-145 was > 100 µM (inactive) each time. Besides, in the assay on OVCAR-8, the GI50 is > 100 µM (inactive).
`O/N=C/C1c2ccccc2-c2ccccc21`: the GI50 in the assay with HL-60 was 31.3 µM (inactive); with OVCAR-3, 16.1 µM (inactive); in the assay on SW-620 it was 16.6 µM (inactive); with SK-MEL-28, 15.7 µM (inactive); with MDA-MB-435, 15.8 µM (inactive); in the assay with NCI-H226 it was 15 µM (inactive). The GI50 was 17.9 µM (inactive) in the assay on NCI-H23; 15 µM (inactive) with UACC-62; 17.2 µM (inactive) in the assay on PC-3; 17.5 µM (inactive) in the assay with UACC-257; 12.8 µM (inactive) in the assay on HOP-92; 14.4 µM (inactive) in the assay with SK-OV-3. The GI50 in the assay with SR is 23.2 µM (inactive); in the assay with Malme-3M, 15.2 µM (inactive); in the assay on SF-539, 16.2 µM (inactive); with DU-145, 20.8 µM (inactive); with OVCAR-8, 19.6 µM (inactive); in the assay on RXF 393, 19.5 µM (inactive).
As to `CCCNC(=O)Nc1ccc2c(c1)Cc1cc(N(CCCl)CCCl)ccc1-2`, the GI50 in the assay on HL-60 was 5.94 µM (inactive); in the assay with OVCAR-3, 22.1 µM (inactive); with SW-620 it was 28.6 µM (inactive); in the assay on SK-MEL-28 it was 11.5 µM (inactive); in the assay on MDA-MB-435 it was 21.1 µM (inactive); with NCI-H23 it was 36.1 µM (inactive). For the same molecule, the GI50 in the assay with UACC-62 was 21.9 µM (inactive); with PC-3 it was 25.2 µM (inactive); in the assay with UACC-257, 41.7 µM (inactive); with HOP-92, 25.2 µM (inactive); with SR, 1.32 µM (inactive); in the assay with Malme-3M, 36 µM (inactive). The GI50 in the assay on SF-539 was 5.53 µM (inactive); with DU-145, 14.6 µM (inactive); in the assay with OVCAR-8, 26.9 µM (inactive); in the assay on RXF 393, 15.5 µM (inactive).
As to `CCC1(O)CC(OC2CC(N(C)C)C(OC3CC(O)C(OC4OC(C)C(=O)C=C4N)C(C)O3)C(C)O2)c2c(O)c3c(c(O)c2C1C(=O)OC)C(=O)c1cccc(O)c1C3=O` (stereo not drawn), the GI50 was 0.00154 µM (active) in the assay with HL-60; 0.0225 µM (active) with OVCAR-3; 0.00225 µM (active) in the assay on SW-620; 0.01 µM (active) in the assay on OVCAR-4; 0.0105 µM (active) in the assay with SK-MEL-28; 0.00371 µM (active) with MDA-MB-435. In addition, the GI50 with NCI-H226 was 0.0139 µM (active); with NCI-H23, 0.0189 µM (active); in the assay with UACC-62, 0.0106 µM (active); with PC-3, 0.00535 µM (active); in the assay on SNB-75, 0.0311 µM (active); in the assay with UACC-257 it was 0.00836 µM (active). In addition, the GI50 with HOP-92 is 0.0164 µM (active); in the assay on SK-OV-3 it was 0.00274 µM (active); with SR, 0.00413 µM (active); in the assay with Malme-3M it was 0.0114 µM (active); with SF-539, 0.00759 µM (active); in the assay on DU-145 it was 0.00686 µM (active). Moreover, the GI50 with OVCAR-8 was 0.00398 µM (active).
With `N#CC(=S)Nc1ccc(Cl)c(Cl)c1`, the GI50 with OVCAR-3 was 20.5 µM (inactive); in the assay with SW-620, 27 µM (inactive); in the assay on SK-MEL-28 it was 30.3 µM (inactive); in the assay on MDA-MB-435, 27 µM (inactive); in the assay with NCI-H226 it was 22.4 µM (inactive); in the assay on NCI-H23, 31.9 µM (inactive). In addition, the GI50 in the assay on UACC-62 is 19 µM (inactive); with PC-3, 23.9 µM (inactive); with SNB-75, 21.7 µM (inactive); in the assay on UACC-257, 28.2 µM (inactive); with HOP-92, 3.1 µM (inactive); with SK-OV-3, 20 µM (inactive). Further, the GI50 with SR is 21.7 µM (inactive); in the assay on Malme-3M it was 28.1 µM (inactive); in the assay with SF-539 it was 20.7 µM (inactive); in the assay on DU-145 it was 45.6 µM (inactive); with OVCAR-8, 25.4 µM (inactive); in the assay with RXF 393, 25.4 µM (inactive).
